Values joined by “and” are separate entries in the source; they are usually repeats but may differ in a detail not shown here. Identical values can stand only once. Like-named read-outs stand apart in the source and are kept apart here.
Legend:
[1] = target: T1, BasE (Acinetobacter baumannii, UniProt A0A0D5YGP3); assay: biochemical; format: binding; settings: for fold loss of affinity/potency toward BasE relative to 15: ratio of KD to lead compound 15; for Kd: KD (nM) BasE, FP displacement, 20 nM Fl-Sal-AMS 14, 200 nM BasE, pH 7.5, 25 °C; for fold increase in affinity toward BasE relative to 15: ratio of KD of lead compound 15 to compound
[2] = target: MbtA (Mycobacterium tuberculosis, UniProt P71716); assay: Fluorescence polarization displacement of Fl-Sal-AMS 14 from MbtA; format: binding; settings: for fold loss of affinity toward MbtA relative to 15: ratio of KD to lead compound 15
MbtA, sequence (P71716 whole entry): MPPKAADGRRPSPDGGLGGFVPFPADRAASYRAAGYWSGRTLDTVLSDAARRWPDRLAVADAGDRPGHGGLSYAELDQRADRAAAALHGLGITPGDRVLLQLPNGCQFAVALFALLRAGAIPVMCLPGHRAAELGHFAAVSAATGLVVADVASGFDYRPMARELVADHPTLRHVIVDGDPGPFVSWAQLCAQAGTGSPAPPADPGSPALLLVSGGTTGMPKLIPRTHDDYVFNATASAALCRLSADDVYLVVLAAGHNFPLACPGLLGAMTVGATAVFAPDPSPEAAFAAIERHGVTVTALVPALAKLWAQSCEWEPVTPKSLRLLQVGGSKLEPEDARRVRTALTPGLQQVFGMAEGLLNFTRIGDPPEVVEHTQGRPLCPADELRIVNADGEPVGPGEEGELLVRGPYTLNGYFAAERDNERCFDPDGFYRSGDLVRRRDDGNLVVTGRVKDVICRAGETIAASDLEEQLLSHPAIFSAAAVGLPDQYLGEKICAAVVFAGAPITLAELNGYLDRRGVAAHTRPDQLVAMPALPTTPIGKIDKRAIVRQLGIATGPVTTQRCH

[3] = tested on: P. aeruginosa; settings: ref unpublished results, Brian Beck, Laura Celia, ATCC; cited from earlier work
[4] = tested on: K. pneumoniae; settings: ref unpublished results, Brian Beck, Laura Celia, ATCC; cited from earlier work
[5] = tested on: A. baumannii; settings: ref unpublished results, Brian Beck, Laura Celia, ATCC; cited from earlier work
[6] = tested on: E. coli; settings: ref unpublished results, Brian Beck, Laura Celia, ATCC; cited from earlier work
[7] = target: T1, BasE; settings: read-out: KD1, equilibrium dissociation constant of probe 14 for BasE; cited from earlier work

Compound	fold loss of affinity/potency toward BasE relative to 15 [1]	other results
COc1ccc(-c2cc(C(=O)O)c3cnn(Cc4ccncc4)c3n2)cc1 [Compound 62]	2.2 fold	
O=C(O)c1cc(C#Cc2ccccc2)nc2c1cnn2Cc1ccncc1 [Compound 94, 6-(Phenylethynyl)-1-(pyridin-4-ylmethyl)-1H-pyrazolo[3,4-b]pyridine-4-carboxylic acid]	~ 10 fold	
OCc1cc(-c2ccccc2)nc2c1cnn2Cc1ccncc1 [Compound 19, 4-Hydroxymethyl-6-phenyl-1-(pyridin-4-ylmethyl)-1H-pyrazolo[3,4-b]pyridine]	2.8 fold and 3 fold	
Cc1ccc(-c2cc(C(=O)O)c3cnn(Cc4ccncc4)c3n2)s1 [Compound 79]		Kd [1]: < 10 nM; fold increase in affinity toward BasE relative to 15 [1]: 5 fold
Nc1ccc(-c2cc(C(=O)O)c3cnn(Cc4ccncc4)c3n2)cc1 [Compound 52]	2.2 fold	
O=C(O)c1cc(-c2ccccc2)cc2nn(Cc3ccncc3)cc12 [Compound 99, 6-Phenyl-2-(pyridin-4-ylmethyl)-2H-indazole-4-carboxylic acid]	1800 fold	fold loss of affinity toward MbtA relative to 15 [2]: 15.5 fold
O=C(O)c1cc(-c2cccc(Cl)c2)nc2c1cnn2Cc1ccncc1 [Compound 45]		Kd [1]: < 10 nM; fold increase in affinity toward BasE relative to 15 [1]: more than 4 fold
O=C(O)c1cc(-c2ccc3[nH]ccc3c2)nc2c1cnn2Cc1ccncc1 [Compound 87]	1.7 fold	
O=C(O)c1cc(-c2cccs2)nc2c1cnn2Cc1ccncc1 [Compound 76]	~ 10 fold	
O=C(O)c1cc(-c2cncc3ccccc23)nc2c1cnn2Cc1ccncc1 [Compound 86]	215 fold	
C=Cc1cc(C(=O)O)c2cnn(Cc3ccncc3)c2n1 [Compound 91]	~ 55 fold	
O=C(O)c1cc(-c2ccc(OCc3ccccc3)cc2)nc2c1cnn2Cc1ccncc1 [Compound 67]		Kd [1]: 2 nM and < 10 nM; fold increase in affinity toward BasE relative to 15 [1]: 17 fold
Nc1ncnc2c1ncn2[C@@H]1O[C@H](COS(=O)(=O)NC(=O)c2cccc(O)c2O)[C@@H](O)[C@H]1O [2,3-DHB-AMS, 5′-O-[N-(2,3-dihydroxybenzoyl)sulfamoyl]adenosine]		activity against P. aeruginosa [3]: no activity; activity against K. pneumoniae [4]: no activity; activity against A. baumannii [5]: no activity; activity against E. coli [6]: no activity
Cc1csc(-c2cc(C(=O)O)c3cnn(Cc4ccncc4)c3n2)c1 [Compound 78]	2.4 fold	
O=C(O)c1cc(-c2ccco2)nc2c1cnn2Cc1ccncc1 [Compound 75]	~ 10 fold	
O=C(O)c1cc(-c2ccc(-c3ccccc3)cc2)nc2c1cnn2Cc1ccncc1 [Compound 72]	3.5 fold	
Cc1ccsc1-c1cc(C(=O)O)c2cnn(Cc3ccncc3)c2n1 [Compound 77]	9 fold	

Compound	fold loss of affinity/potency toward BasE relative to 15 [1]	other results
O=C(O)c1cc(-c2ccccc2)cc2c1ccn2Cc1ccncc1 [Compound 17, 6-Phenyl-1-(pyridin-4-ylmethyl)-1H-indole-4-carboxylic acid]	1400 fold	
Nc1cc(-c2ccccc2)nc2c1cnn2Cc1ccncc1 [Compound 21, 6-Phenyl-1-(pyridin-4-ylmethyl)-1H-pyrazolo[3,4-b]pyridin-4-amine]	approximately 6 fold	
NC(=O)c1cc(-c2ccccc2)nc2c1cnn2Cc1ccncc1 [Compound 22, 6-Phenyl-1-(pyridin-4-ylmethyl)-1H-pyrazolo[3,4-b]pyridine-4-carboxamide]	1.8 fold and 2 fold	
22-O-{2-[2-(2-{[(fluorescein-5-yl)carbonyl]amino}ethoxy)ethoxy]ethoxy}-52-O-[N-(salicyl)sulfamoyl]adenosine [Compound 14]		Kd [7]: 0.0843 µM
C#Cc1cc(C(=O)O)c2cnn(Cc3ccncc3)c2n1 [Compound 93, 6-Ethynyl-1-(pyridin-4-ylmethyl)-1H-pyrazolo[3,4-b]pyridine-4-carboxylic acid]	~ 55 fold	
O=C(O)c1cc(-c2ccccc2)nc2c1cnn2Cc1ccc(O)cc1 [Compound 32, 1-(4-Hydroxybenzyl)-6-phenyl-1H-pyrazolo[3,4-b]pyridine-4-carboxylic acid]	15 fold	
COc1ccc(COc2ccc(-c3cc(C(=O)O)c4cnn(Cc5ccncc5)c4n3)cc2)cc1 [Compound 68]		fold less potent than 67 toward BasE ([1]; relative to p-benzyloxy 67): 21 fold
O=C(O)c1cc(-c2ccccc2O)nc2c1cnn2Cc1ccncc1 [Compound 40]	7 fold	
CCOC(=O)c1cc(-c2ccccc2)nc2c1cnn2Cc1ccncc1 [Compound 18, Ethyl 6-phenyl-1-(pyridin-4-ylmethyl)-1H-pyrazolo[3,4-b]pyridine-4-carboxylate]	60 fold	
Cc1ccc(-c2cc(C(=O)O)c3cnn(Cc4ccncc4)c3n2)cc1 [Compound 39]		fold increase in affinity toward MbtA relative to 15 ([2]; ratio of KD of lead compound 15 to compound): 2.6 fold
O=C(O)c1ccc(-c2cc(C(=O)O)c3cnn(Cc4ccncc4)c3n2)cc1 [Compound 58]	over 20 fold	fold loss of affinity toward MbtA relative to 15 [2]: 2 fold
O=C(O)c1cc(/C=C/c2ccccc2)nc2c1cnn2Cc1ccncc1 [Compound 92]	~ 10 fold	
O=C(O)c1cc(-c2ccc(O)cc2)nc2c1cnn2Cc1ccncc1 [Compound 42, 6-(4-Hydroxyphenyl)-1-(pyridin-4-ylmethyl)-1H-pyrazolo[3,4-b]pyridine-4-carboxylic acid]		Kd [1]: < 10 nM; fold increase in affinity toward BasE relative to 15 [1]: more than 4 fold
CC(=O)Nc1ccc(-c2cc(C(=O)O)c3cnn(Cc4ccncc4)c3n2)cc1 [Compound 54]	over 20 fold	
O=C(c1ccccc1)c1ccc(-c2cc(C(=O)O)c3cnn(Cc4ccncc4)c3n2)cc1 [Compound 70]		Kd [1]: 19 nM; fold increase in affinity toward BasE relative to 15 [1]: 2 fold
O=C(O)c1cc(=O)[nH]c2c1cnn2Cc1ccncc1 [Compound 98, 6-Oxo-1-(pyridin-4-ylmethyl)-6,7-dihydro-1H-pyrazolo[3,4-b]pyridine-4-carboxylic acid]	> 2800 fold	
O=C(O)c1cc(-c2ccccc2)cc2c1cnn2Cc1ccncc1 [Compound 16, 6-Phenyl-1-(pyridin-4-ylmethyl)-1H-indazole-4-carboxylic acid]	2 fold	

— article PMC3621123 (Journal of medicinal chemistry, 2013)
